In patent US7119111B2, “2-oxo-1,3,4-trihydroquinazolinyl derivatives and methods of use” (Amgen, Inc., priority 2002, dated 2006):
Structures can show the parent of a compound that is named as a salt.

Assay: Cell Proliferation Assay (BrdU incorporation)
Assay type: cell-based
Conditions: Homo sapiens; 48 h incubation, BrdU labeling; cell line not specified; read-out: inhibited cell proliferation IC50
Protocol: Cell proliferation was measured using a calorimetric immunoassay (B/M Roche #164 7229), based on the measurement of pyrimidine analog BrdU incorporation during DNA synthesis in proliferating cells. Cells, e.g., human PC-3 prostate carconima cells, huFSF normal human foreskin fibroblast cells, HCT 116 human colon carcinoma cells or HT 29 human colon carcinoma cells, were cultured in a 96-well plate for 24 h, until a cell count of 3×10^3 to 6×10^3 cells per well in duplicate wells were achieved, in a well volume of 200 μl. The media was changed and 1 μl of 200× control inhibitors or compounds was added to each well. Cells are incubated for 48 h at 37° C. The cells were labeled with BrdU for 4 h at 37° C. The labeling medium was removed and in one step, the cells were fixed and the DNA was denatured (30 min at RT). Anti-BrdU-POD antibody was added to bind to the BrdU incorporated in newly synthesized cellular DNA (60–90 min at RT). The cells were washed 3×with washing buffer, substrate (100 μl) was added and the cells were incubated for 10 min at RT. The substrate reaction was stopped by adding 25 μl of 1M H2SO4. The amount of BrdU incorporated was quantified by measuring the absorbance at 450 nm using ELISA reader. IC50's were calculated using GraFit (Sigma).

With `Nc1ccc2c(c1)NC(=O)N(c1csc(-c3ccncc3)n1)C2` [Example 28, 7-Amino-3-(2-(4-pyridyl)(1,3-thiazol-4-yl))-1,3,4-trihydroquinazolin-2-one] the IC50 was < 5 µM.

Assay: not given
Conditions: not given

First: COc1cccc(-c2cccc3c2CN(c2csc(-c4ccncc4)n2)C(=O)N3)c1 [Example 57, 5-(3-Methoxyphenyl)-3-(2-(4-pyridyl)(1,3-thiazol-4-yl))-1,3,4-trihydroquinazolin-2-one]
Second: COc1cccc(-c2ccc3c(c2)NC(=O)N(c2csc(-c4ccncc4)n2)C3)c1 [Example 30, 7-(3-Methoxyphenyl)-3-(2-(4-pyridyl)(1,3-thiazol-4-yl))-1,3,4-trihydroquinazolin-2-one]
The melting point of the first is lower: 250 to 252 °C for the first, 256 to 258 °C for the second.

First: O=C1Nc2ccccc2CN1c1nc(-c2cccnc2)cs1 [Example 18, 3-(4-(3-Pyridyl)-1,3-thiazol-2-yl)-1,3,4-trihydroquinazolin-2-one]
Second: O=C1Nc2ccccc2CN1c1nc(-c2ccc(O)cc2)cs1 [Example 49, 3-[4-(4-Hydroxyphenyl)-1,3-thiazol-2-yl]-1,3,4-trihydroquinazolin-2-one]
The melting point of the first is lower: 269 to 272 °C for the first, 288 to 291 °C for the second.

Compared with `O=C1Nc2cccc(CN3CCCCC3)c2CN1c1csc(-c2ccncc2)n1` (as salt: HCl) [Example 15, 5-(Piperidylmethyl)-3-(2-(4-pyridyl)(1,3-thiazol-4-yl))-1,3,4-trihydroquinazolin-2-one], `O=C1Nc2cccc(CN3CCCCCC3)c2CN1c1csc(-c2ccncc2)n1` [Example 29, 5-(Azaperhydroepinylmethyl)-3-(2-(4-pyridyl)(1,3-thiazol-4-yl))-1,3,4-trihydroquinazolin-2-one] is lower in melting point: 278 to 280 °C for the first, 202 to 204 °C for the second.

Compared with `O=C1Nc2ccccc2CN1c1nc(-c2ccc(Cl)c(Cl)c2)cs1` [Example 44, 3-[4-(3,4-Dichlorophenyl)-1,3-thiazol-2-yl]-1,3,4-trihydroquinazolin-2-one], `O=C1Nc2ccccc2CN1c1nc(-c2ccc(F)c(F)c2)cs1` [Example 39, 3-[4-(3,4-Difluorophenyl)-1,3-thiazol-2-yl]-1,3,4-trihydroquinazolin-2-one] is lower in melting point: 295 to 299 °C for the first, 289 to 293 °C for the second.

`Cc1ccc(Oc2ccc3c(c2)CN(c2nc(-c4ccncc4)cs2)C(=O)N3)c(C)c1` [Example 40, 6-(2,4-Dimethylphenoxy)-3-(4-(4-pyridyl)(1,3-thiazol-2-yl))-1,3,4-trihydroquinazolin-2-one] and `CN(C)CCN(C)c1ccc2c(c1)CN(c1nc(-c3ccncc3)cs1)C(=O)N2` [Example 37, 6-{[2-(Dimethylamino)ethyl](methyl)amino}-3-(4-(4-pyridyl)(1,3-thiazol-2-yl))-1,3,4-trihydroquinazolin-2-one] cannot be ordered by melting point: 254 to 258 °C for the first, 254 to 257 °C for the second.

First: O=C1Nc2cccc(Br)c2CN1c1csc(-c2ccncc2)n1 [Example 6, 5-Bromo-3-(2-(4-pyridyl)(1,3-thiazol-4-yl))-1,3,4-trihydroquinazolin-2-one]
Second: O=C1Nc2cccc(Cl)c2CN1c1csc(-c2ccncc2)n1 [Example 11, 5-Chloro-3-(2-(4-pyridyl)(1,3-thiazol-4-yl))-1,3,4-trihydroquinazolin-2-one]
The melting point of the first is lower: 283 to 284 °C for the first, 292 to 293 °C for the second.

Compared with `COc1ccc(-c2csc(N3Cc4ccccc4NC3=O)n2)cc1` [Example 48, 3-[4-(4-Methoxyphenyl)-1,3-thiazol-2-yl]-1,3,4-trihydroquinazolin-2-one], `COc1ccc(-c2csc(N3Cc4ccccc4NC3=O)n2)c(OC)c1` [Example 41, 3-[4-(2,4-Dimethoxyphenyl)-1,3-thiazol-2-yl]-1,3,4-trihydroquinazolin-2-one] is higher in melting point: 275 to 278 °C for the first, 283 to 288 °C for the second.

First: O=C1Nc2cc(CN3CCOCC3)ccc2CN1c1csc(-c2ccncc2)n1 [Example 27, 7-(Morpholin-4-ylmethyl)-3-(2-(4-pyridyl)(1,3-thiazol-4-yl))-1,3,4-trihydroquinazolin-2-one]
Second: O=C1Nc2cccc(CN3CCOCC3)c2CN1c1csc(-c2ccncc2)n1 (as salt: HCl) [Example 14, 5-(Morpholin-4-ylmethyl)-3-(2-(4-pyridyl)(1,3-thiazol-4-yl))-1,3,4-trihydroquinazolin-2-one]
The melting point of the first is lower: 249 to 250 °C for the first, 261 to 263 °C for the second.

First: O=C1Nc2ccccc2CN1c1ccc(-c2ccncc2)s1 [Example 47, 3-(5-(4-Pyridyl)-2-thienyl)-1,3,4-trihydroquinazolin-2-one]
Second: O=C1Nc2cc(-c3ccccc3)ccc2CN1c1csc(-c2ccncc2)n1 [Example 12, 7-Phenyl-3-(2-(4-pyridyl)(1,3-thiazol-4-yl))-1,3,4-trihydroquinazolin-2-one]
The melting point of the first is higher: 301 to 305 °C for the first, 248 to 250 °C for the second.

First: O=C1Nc2ccc(F)cc2CN1c1csc(-c2ccncc2)n1 [Example 10, 6-Fluoro-3-(2-(4-pyridyl)(1,3-thiazol-4-yl))-1,3,4-trihydroquinazolin-2-one]
Second: O=C1Nc2cc(F)ccc2CN1c1csc(-c2ccncc2)n1 [Example 9, 7-Fluoro-3-(2-(4-pyridyl)(1,3-thiazol-4-yl))-1,3,4-trihydroquinazolin-2-one]
The melting point of the first is higher: 290 to 291 °C for the first, 285 to 286 °C for the second.

First: O=C1Nc2cccc(F)c2CN1c1csc(-c2ccncc2)n1 [Example 13, 5-Fluoro-3-(2-(4-pyridyl)(1,3-thiazol-4-yl))-1,3,4-trihydroquinazolin-2-one]
Second: Cc1ccc2c(c1)CN(c1csc(-c3ccncc3)n1)C(=O)N2 [Example 7, 6-Methyl-3-(2-(4-pyridyl)(1,3-thiazol-4-yl))-1,3,4-trihydroquinazolin-2-one]
The melting point of the first is lower: 247 to 249 °C for the first, 259 to 261 °C for the second.

First: CCc1cc(-c2nc(N3Cc4ccccc4NC3=O)cs2)ccn1 [Example 35, 3-[2-(2-Ethyl-4-pyridyl)-1,3-thiazol-4-yl]-1,3,4-trihydroquinazolin-2-one]
Second: O=C1Nc2cc(F)c(N3CCCCC3)cc2CN1c1csc(-c2ccncc2)n1 [Example 56, 7-Fluoro-6-piperidyl-3-(2-(4-pyridyl)(1,3-thiazol-4-yl))-1,3,4-trihydroquinazolin-2-one]
The melting point of the first is lower: 239 to 240 °C for the first, 312 to 314 °C for the second.

First: CN1CCN(c2ccc3c(c2)CN(c2nc(-c4ccncc4)cs2)C(=O)N3)CC1 [Example 38, 6-(4-Methylpiperazinyl)-3-(4-(4-pyridyl)(1,3-thiazol-2-yl))-1,3,4-trihydroquinazolin-2-one]
Second: O=C1Nc2cccc(OCCN3CCOCC3)c2CN1c1nc(-c2ccncc2)ns1 (as salt: salt) [Example 51, 5-(2-Morpholin-4-ylethoxy)-3-(3-(4-pyridyl)(1,2,4-thiadiazol-5-yl))-1,3,4-trihydroquinazolin-2-one]
The melting point of the first is higher: 301 to 304 °C for the first, 259 to 260 °C for the second.

In the case of `O=C1Nc2cc(C(F)(F)F)ccc2CN1c1nc(-c2ccncc2)ns1` [Example 52, 3-(3-(4-Pyridyl)(1,2,4-thiadiazol-5-yl))-7-(trifluoromethyl)-1,3,4-trihydroquinazolin-2-one], the melting point is reported as > 300 °C.
In the case of `CN1CCC[C@H]1COc1cccc2c1CN(c1nc(-c3ccncc3)ns1)C(=O)N2` [Example 55, 5-[((2S)-1-Methylpyrrolidin-2-yl)methoxy]-3-(3-(4-pyridyl)-(1,2,4-thiadiazol-5-yl))-1,3,4-trihydroquinazolin-2-one], the melting point is reported as > 250 °C.
With `O=C1Nc2cccc(Cl)c2CN1c1nc(-c2ccncc2)cs1` [Example 43, 5-Chloro-3-(4-(4-pyridyl)(1,3-thiazol-2-yl))-1,3,4-trihydroquinazolin-2-one] the melting point was > 300 °C.
In the case of `O=C1Nc2ccc(N3CCCCC3)cc2CN1c1nc(-c2ccncc2)cs1` [Example 36, 6-Piperidyl-3-(4-(4-pyridyl)(1,3-thiazol-2-yl))-1,3,4-trihydroquinazolin-2-one], the melting point is reported as > 272 °C.
For `O=C1Nc2cccc(N3CCOCC3)c2CN1c1nc(-c2ccncc2)ns1` [Example 53, 5-Morpholin-4-yl-3-(3-(4-pyridyl)(1,2,4-thiadiazol-5-yl))-1,3,4-trihydroquinazolin-2-one], the melting point was > 300 °C.
In the case of `O=C1Nc2ccccc2CN1c1nc(-c2ccccn2)cs1` [Example 17, 3-(4-(2-Pyridyl)-1,3-thiazol-2-yl)-1,3,4-trihydroquinazolin-2-one], the melting point is reported as > 275 °C.
In the case of `CN1CCC[C@H]1COc1ccc2c(c1)CN(c1nc(-c3ccncc3)ns1)C(=O)N2` [Example 54, 6-[((2S)-1-Methylpyrrolidin-2-yl)methoxy]-3-(3-(4-pyridyl)-(1,2,4-thiadiazol-5-yl))-1,3,4-trihydroquinazolin-2-one], the melting point is reported as > 275 °C.
In the case of `O=C1Nc2cccc(F)c2CN1c1nc(-c2ccncc2)cs1` [Example 45, 5-Fluoro-3-(4-(4-pyridyl)(1,3-thiazol-2-yl))-1,3,4-trihydroquinazolin-2-one], the melting point is reported as > 300 °C.
With `O=C1Nc2ccccc2CN1c1nc(-c2ccncc2)cs1` [Example 16, 3-(4-(4-Pyridyl)-1,3-thiazol-2-yl)-1,3,4-trihydroquinazolin-2-one] the melting point was > 267 °C.
With `O=C1Nc2ccccc2CN1c1nc(-c2ccncc2)ns1` [Example 46, 3-(3-(4-Pyridyl)-1,2,4-thiadiazol-5-yl)-1,3,4-trihydroquinazolin-2-one] the melting point was > 290 °C.
